The source of these data is EP0170258A2, “11-Substituted-16-phenoxy and 16-substituted phenoxy-prostatrienoic acid derivatives” (priority 1984, dated 1986).

One data set deals with Monkeys. Briefly: Toxicity by topical ocular application in monkeys. Format: in vivo. As to conditions: same concentrations and dosages, once a day for one week. The protocol: Monkeys were treated similarly with the same concentrations and dosages of methyl 9-oxo-lla- methyl-15a-hydroxy-16-phenoxy-17,18,19,20-tetranorprosta-4,5,13(E)-trienoate once a day for one week.
In data set [1] the test system is Normal White Albino New Zealand Rabbits. Description: Reduction of intraocular pressure (IOP), pneuma-tonometer. It counts as in vivo. Here is the method:
Two groups of normal albino white New Zealand rabbits were used for this study. Control group: 4 animals Experimental group: 8 animals At time 0, intraocular pressure of both eyes of each animal in control and experimental groups was determined. All animals received the treatment either with saline (control group) or the tested compound (experimental group) immediately after 0 hour intraocular pressure reading. Control group received 50 µl of vehicle in both eyes . Experimental animals received 50 µl of vehicle in the left eyes and 50 µl of the test solution in the right eyes. Intraocular pressure was measured at 30 minutes, 1, 2, and 4 hours. The effects of tested drug on intraocular pressure of the rabbit was determined using a Digilab Model 30D pneuma-tonometer. Initial IOP readings were obtained in all animals after the administration of 50 ul of 0.5% Opthaine (proparacaine hydrochloride). A group of 4 rabbits served as controls and were treated with 50 µl of saline in both eyes. Eight additional rabbits received 50 ul of test drug in the right eye, and 50 µl of drug vehicle was administered in the contralateral left eye. IOP readings were made 30 minutes, 1 hours, 2 hours, and 4 hours after drug administration. […] This procedure permitted the comparison of drug treated eye with the contralateral vehicle treated eye, and also with saline treated eye. For purposes of statistical analysis comparisons were made between the drug treated IOP values and vehicle treated-contralateral eyes and also the saline treated IOP values.

The subject of a further data set is rabbits. Briefly: Toxicity by topical ocular application in rabbits. Format: in vivo. As to conditions: up to 0.2 mg/ml, 0.1 ml/eye, from 12 times in 6 hours to up to 6 times/day for a week. Here is the method:
Studies were conducted by topical ocular application in rabbits with concentrations up to 0.2 mg/ml of methyl 9-oxo-lla-methyl-15a-hydroxy-16-phenoxy-17,18,19,20-tetranorprosta-4,5,13(E)-trienoate. The dose volume was 0.1 ml/eye. Duration of administration varied from 12 times in 6 hours to up to 6 times/day for a week.

Data set [2] relates to Normal White Albino New Zealand Rabbits. Briefly: Reduction of intraocular pressure (IOP), pneuma-tonometer. As to conditions: rabbit, in vivo.

For `COC(=O)CCC=C=CC[C@H]1C(=O)C[C@@H](C)[C@@H]1/C=C/[C@@H](O)COc1ccccc1` [Compound 1, methyl 9-oxo-11α-methyl-15α-hydroxy-16-phenoxy-17,18,19,20-tetranorprosta-4,5,13(E)-trienoate], the ocular toxicity result with Monkeys and in the data set on rabbits was “No ocular toxicity occurred” in each case. The “intraocular pressure (effect in words)” value in data set [1] (0.01% solution, right (treated) eyes of the experimental group) is “decreased significantly”. For the same molecule, the Intraocular pressure in data set [1] (Compound 1 0.02%, 0 hr (reading before treatment)) was 21.63 ± .71 mmHg; in data set [1] (Compound 1 0.02%, 1/2 hr), 18.13 ± .44 mmHg; in data set [1] (Compound 1 0.02%, 1 hr), 17.25 ± .59 mmHg; in data set [1] (Compound 1 0.02%, 2 hr), 16.63 ± .78 mmHg; in data set [1] (Compound 1 0.02%, 4 hr) it was 18.75 ± .68 mmHg; in data set [1] (Compound 1 0.2%, 0 hr (reading before treatment)), 23.75 ± .53 mmHg. For the same molecule, the Intraocular pressure in data set [1] (Compound 1 0.2%, 1/2 hr) is listed as 19.25 ± .49 mmHg; in data set [1] (Compound 1 0.2%, 1 hr), 18.88 ± .64 mmHg; in data set [1] (Compound 1 0.2%, 2 hr), 18.75 ± .45 mmHg; in data set [1] (Compound 1 0.2%, 4 hr), 19.88 ± .35 mmHg.
As for `CCCCC[C@H](O)/C=C/[C@H]1[C@H](O)CC(=O)[C@@H]1CCCCCCC(=O)O` [PGE1], the Intraocular pressure in data set [1] (PGE1 0.01%, 0 hr (reading before treatment)) was 20.67 ± 1.09 mmHg; in data set [1] (PGE1 0.01%, 1/2 hr), 38.17 ± 1.28 mmHg; in data set [1] (PGE1 0.01%, 1 hr), 31.17 ± .91 mmHg; in data set [1] (PGE1 0.01%, 2 hr), 15.33 ± .56 mmHg; in data set [1] (PGE1 0.01%, 4 hr), 16.33 ± 1.17 mmHg; in data set [1] (PGE1 0.01%, 6 hr) it was 19.00 ± 1.03 mmHg. Besides, the “transient increase in intraocular pressure at the time of administration” value in data set [1] (rabbit, in vivo) is given as “transitory rise in intraocular pressure”. In data set [2], the eye irritation entry was “severe eye irritation”.
Regarding `CCCCC[C@H](O)/C=C/[C@H]1[C@H](O)CC(=O)[C@@H]1C/C=C\CCCC(=O)O` [PGE2], the Intraocular pressure is given as 21.00 ± .85 mmHg in data set [1] (PGE2 0.025%, 0 hr (reading before treatment)); 47.63 ± 1.28 mmHg in data set [1] (PGE2 0.025%, 1/2 hr); 18.38 ± .82 mmHg in data set [1] (PGE2 0.025%, 2.5 hr); 16.00 ± .73 mmHg in data set [1] (PGE2 0.025%, 4 hr); 16.63 ± .38 mmHg in data set [1] (PGE2 0.025%, 5 hr). In addition, the eye irritation entry in data set [1] (observed on administration, for PGE1 and PGE2 even at low doses) was “severe eye irritation”. Also, the “transient increase in intraocular pressure at the time of administration” value in data set [1] (when first administered) is given as “transitory rise in intraocular pressure”.
